The target in assay [1] is 5'-AMP-activated protein kinase catalytic subunit alpha-1 (Homo sapiens) (UniProt Q13131). In words: Inhibition of human AMPKalpha1 (1 to 550 residues assessed as residual activity at 0.1 uM relative to control.
For assay [2], the target named is Aurora kinase B (Homo sapiens) (UniProt Q96GD4). In words: Inhibition of human Aurora-B assessed as residual activity at 0.1 uM relative to control.
Assay [3] has the same target. In words: Inhibition of human Aurora-B assessed as residual activity at 1 uM relative to control.
Assay [4] deals with Calcium/calmodulin-dependent protein kinase kinase 2 (Homo sapiens) (UniProt Q96RR4). Kind of assay: Inhibition of human CAMKK2 assessed as residual activity at 0.1 uM relative to control.
In assay [5] the target is T1, Mitogen-activated protein kinase kinase kinase 7 (Homo sapiens) (UniProt O43318).
T1 sequence (whole entry): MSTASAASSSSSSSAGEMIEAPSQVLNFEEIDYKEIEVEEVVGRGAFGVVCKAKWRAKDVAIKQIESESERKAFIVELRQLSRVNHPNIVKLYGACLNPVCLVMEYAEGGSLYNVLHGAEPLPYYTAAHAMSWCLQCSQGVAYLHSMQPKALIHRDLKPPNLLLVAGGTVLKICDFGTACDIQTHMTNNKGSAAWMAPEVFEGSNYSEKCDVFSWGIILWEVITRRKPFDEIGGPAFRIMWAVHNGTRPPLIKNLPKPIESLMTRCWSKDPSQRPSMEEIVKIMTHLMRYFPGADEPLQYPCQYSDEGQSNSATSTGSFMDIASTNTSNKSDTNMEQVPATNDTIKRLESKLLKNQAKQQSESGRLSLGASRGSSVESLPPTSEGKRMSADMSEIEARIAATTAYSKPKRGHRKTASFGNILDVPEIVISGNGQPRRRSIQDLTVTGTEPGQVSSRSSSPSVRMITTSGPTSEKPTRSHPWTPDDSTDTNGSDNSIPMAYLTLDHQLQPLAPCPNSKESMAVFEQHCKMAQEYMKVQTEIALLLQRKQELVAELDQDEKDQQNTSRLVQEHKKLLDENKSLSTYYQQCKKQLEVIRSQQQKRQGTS
Kind of assay: Inhibition of human MAP3K7 assessed as residual activity at 1 uM relative to control.

For assay [6], the target named is MAP/microtubule affinity-regulating kinase 3 (Homo sapiens) (UniProt P27448). Kind of assay: Inhibition of human MARK3 assessed as residual activity at 1 uM relative to control.
The target of assay [7] is Dual specificity mitogen-activated protein kinase kinase 1 (Homo sapiens) (UniProt Q02750). Kind of assay: Inhibition of human wild type MEK1 assessed as residual activity at 0.1 uM relative to control.
For assay [8], the target named is Serine/threonine-protein kinase PAK 4 (Homo sapiens) (UniProt O96013). Kind of assay: Inhibition of human PAK4 assessed as residual activity at 0.1 uM relative to control.
Assay [9] has as its target Serine/threonine-protein kinase PLK1 (Homo sapiens) (UniProt P53350). Kind of assay: Inhibition of human PLK1 assessed as residual activity at 0.1 uM relative to control.
Assay [10] deals with Receptor-interacting serine/threonine-protein kinase 2 (Homo sapiens) (UniProt O43353). In words: Inhibition of human RIPK2 assessed as residual activity at 1 uM relative to control.
Assay [11] is filed under the species Homo sapiens. In words: Inhibition of human S6K assessed as residual activity at 0.1 uM relative to control.
Assay [12] addresses High affinity nerve growth factor receptor (Homo sapiens, UniProt P04629). In words: Inhibition of human TRKA assessed as residual activity at 0.1 uM relative to control.
Assay [13] deals with T2, Dual specificity protein kinase TTK (Homo sapiens) (UniProt P33981).
T2 sequence (whole entry): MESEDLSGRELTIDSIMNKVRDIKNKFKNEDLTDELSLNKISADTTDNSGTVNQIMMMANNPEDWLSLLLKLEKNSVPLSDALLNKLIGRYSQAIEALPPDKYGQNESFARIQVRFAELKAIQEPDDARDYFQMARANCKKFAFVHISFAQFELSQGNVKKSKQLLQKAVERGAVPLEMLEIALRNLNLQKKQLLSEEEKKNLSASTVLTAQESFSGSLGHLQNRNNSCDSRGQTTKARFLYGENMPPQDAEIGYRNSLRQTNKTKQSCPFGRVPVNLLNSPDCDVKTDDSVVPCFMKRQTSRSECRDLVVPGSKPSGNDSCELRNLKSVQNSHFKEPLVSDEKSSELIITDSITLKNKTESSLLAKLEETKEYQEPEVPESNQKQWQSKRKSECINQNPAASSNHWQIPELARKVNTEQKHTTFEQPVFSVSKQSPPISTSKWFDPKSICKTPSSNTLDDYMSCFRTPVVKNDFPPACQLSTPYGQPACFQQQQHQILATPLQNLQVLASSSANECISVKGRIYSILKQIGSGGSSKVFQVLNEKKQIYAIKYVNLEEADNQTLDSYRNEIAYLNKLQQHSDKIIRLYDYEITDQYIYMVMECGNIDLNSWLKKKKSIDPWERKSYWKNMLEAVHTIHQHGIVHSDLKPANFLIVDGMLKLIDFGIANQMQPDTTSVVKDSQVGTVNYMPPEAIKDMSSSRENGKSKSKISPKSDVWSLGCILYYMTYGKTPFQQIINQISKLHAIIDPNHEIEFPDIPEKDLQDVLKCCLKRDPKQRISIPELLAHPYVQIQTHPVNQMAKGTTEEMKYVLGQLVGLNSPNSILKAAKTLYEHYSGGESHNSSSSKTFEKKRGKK
Kind of assay: Inhibition of human TTK assessed as residual activity at 0.1 uM relative to control.

In assay [14] the target is Vascular endothelial growth factor receptor 1 (Homo sapiens) (UniProt P17948). In words: Inhibition of human VEGFR1 assessed as residual activity at 0.1 uM relative to control.
Chain of Vascular endothelial growth factor receptor 1 (Homo sapiens) (P17948 whole entry): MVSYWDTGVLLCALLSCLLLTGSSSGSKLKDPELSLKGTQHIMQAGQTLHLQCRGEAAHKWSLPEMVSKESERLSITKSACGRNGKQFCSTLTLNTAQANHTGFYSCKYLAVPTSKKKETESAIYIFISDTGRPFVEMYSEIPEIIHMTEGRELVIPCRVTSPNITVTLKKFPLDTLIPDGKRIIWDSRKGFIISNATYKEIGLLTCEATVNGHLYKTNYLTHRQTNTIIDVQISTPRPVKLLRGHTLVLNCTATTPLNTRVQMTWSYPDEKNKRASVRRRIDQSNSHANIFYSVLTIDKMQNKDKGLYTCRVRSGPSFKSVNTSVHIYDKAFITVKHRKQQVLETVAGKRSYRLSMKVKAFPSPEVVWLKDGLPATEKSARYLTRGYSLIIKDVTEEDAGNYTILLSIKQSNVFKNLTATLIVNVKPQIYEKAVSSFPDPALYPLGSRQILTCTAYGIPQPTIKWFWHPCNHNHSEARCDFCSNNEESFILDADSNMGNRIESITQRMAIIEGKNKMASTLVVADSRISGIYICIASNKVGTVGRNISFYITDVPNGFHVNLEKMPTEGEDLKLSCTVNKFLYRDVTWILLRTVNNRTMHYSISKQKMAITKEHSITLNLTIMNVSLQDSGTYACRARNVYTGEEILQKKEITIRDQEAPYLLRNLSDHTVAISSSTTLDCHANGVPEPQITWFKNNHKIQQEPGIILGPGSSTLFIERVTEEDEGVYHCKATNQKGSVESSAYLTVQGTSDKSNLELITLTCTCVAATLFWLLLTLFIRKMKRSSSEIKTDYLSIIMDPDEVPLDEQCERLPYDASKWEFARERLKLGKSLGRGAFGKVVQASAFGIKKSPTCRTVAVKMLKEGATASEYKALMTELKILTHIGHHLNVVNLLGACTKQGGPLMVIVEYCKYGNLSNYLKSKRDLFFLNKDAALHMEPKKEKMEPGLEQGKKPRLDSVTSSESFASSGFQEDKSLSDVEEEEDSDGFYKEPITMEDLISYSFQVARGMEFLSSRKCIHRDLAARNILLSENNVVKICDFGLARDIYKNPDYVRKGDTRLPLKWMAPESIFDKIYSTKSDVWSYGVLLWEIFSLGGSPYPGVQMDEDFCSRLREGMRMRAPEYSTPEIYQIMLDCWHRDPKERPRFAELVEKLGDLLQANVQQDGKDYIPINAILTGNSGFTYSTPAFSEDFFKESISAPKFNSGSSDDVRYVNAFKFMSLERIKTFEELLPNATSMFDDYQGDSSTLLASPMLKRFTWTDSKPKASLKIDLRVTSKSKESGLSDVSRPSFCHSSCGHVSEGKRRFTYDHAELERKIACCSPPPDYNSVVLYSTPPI

Chain of Serine/threonine-protein kinase PLK1 (Homo sapiens) (P53350 whole entry): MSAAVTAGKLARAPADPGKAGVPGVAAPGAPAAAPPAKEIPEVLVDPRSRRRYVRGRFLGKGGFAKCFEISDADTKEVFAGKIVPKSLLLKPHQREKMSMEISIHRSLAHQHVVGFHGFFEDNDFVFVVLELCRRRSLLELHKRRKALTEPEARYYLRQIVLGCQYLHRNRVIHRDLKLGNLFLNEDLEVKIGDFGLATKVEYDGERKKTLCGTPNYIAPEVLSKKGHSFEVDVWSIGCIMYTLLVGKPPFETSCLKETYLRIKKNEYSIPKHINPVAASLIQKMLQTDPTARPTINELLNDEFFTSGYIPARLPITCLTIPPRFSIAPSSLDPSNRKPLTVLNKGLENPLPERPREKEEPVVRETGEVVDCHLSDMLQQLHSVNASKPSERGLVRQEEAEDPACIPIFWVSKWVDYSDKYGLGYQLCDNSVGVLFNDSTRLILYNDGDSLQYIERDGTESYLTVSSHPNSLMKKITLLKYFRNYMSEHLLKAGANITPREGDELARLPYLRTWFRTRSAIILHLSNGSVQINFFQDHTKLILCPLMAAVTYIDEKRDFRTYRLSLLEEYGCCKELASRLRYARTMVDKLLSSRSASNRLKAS
Chain of 5'-AMP-activated protein kinase catalytic subunit alpha-1 (Homo sapiens) (Q13131 whole entry, looked up, the tested form may be a part): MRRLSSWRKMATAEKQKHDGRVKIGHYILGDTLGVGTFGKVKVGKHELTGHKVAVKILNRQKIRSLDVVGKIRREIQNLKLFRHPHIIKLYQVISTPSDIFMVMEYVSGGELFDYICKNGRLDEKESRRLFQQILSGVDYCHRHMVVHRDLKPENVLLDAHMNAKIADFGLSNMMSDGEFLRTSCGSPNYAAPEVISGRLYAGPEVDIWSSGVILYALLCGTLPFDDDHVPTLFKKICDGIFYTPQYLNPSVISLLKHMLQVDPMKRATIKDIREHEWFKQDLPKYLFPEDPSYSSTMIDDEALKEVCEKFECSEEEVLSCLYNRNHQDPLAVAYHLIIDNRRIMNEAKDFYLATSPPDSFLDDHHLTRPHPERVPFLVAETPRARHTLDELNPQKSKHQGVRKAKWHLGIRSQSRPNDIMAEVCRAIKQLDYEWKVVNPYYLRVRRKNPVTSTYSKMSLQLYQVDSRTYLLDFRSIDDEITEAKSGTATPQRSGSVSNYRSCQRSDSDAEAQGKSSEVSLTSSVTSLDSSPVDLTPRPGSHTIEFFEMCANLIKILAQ
Chain of Receptor-interacting serine/threonine-protein kinase 2 (Homo sapiens) (O43353 whole entry): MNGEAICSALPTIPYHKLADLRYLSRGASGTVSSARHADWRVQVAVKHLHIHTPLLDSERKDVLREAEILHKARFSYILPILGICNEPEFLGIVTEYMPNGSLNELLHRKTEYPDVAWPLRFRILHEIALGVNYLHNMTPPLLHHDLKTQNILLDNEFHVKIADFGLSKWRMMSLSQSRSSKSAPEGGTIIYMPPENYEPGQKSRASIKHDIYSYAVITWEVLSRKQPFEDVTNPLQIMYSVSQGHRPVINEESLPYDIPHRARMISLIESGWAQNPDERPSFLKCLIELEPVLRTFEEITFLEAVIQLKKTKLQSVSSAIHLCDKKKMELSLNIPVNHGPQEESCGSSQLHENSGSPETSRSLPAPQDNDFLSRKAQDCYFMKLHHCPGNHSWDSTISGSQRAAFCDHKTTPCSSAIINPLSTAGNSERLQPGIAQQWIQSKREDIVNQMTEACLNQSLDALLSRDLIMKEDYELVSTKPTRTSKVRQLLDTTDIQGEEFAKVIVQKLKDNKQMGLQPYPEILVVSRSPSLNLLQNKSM
Chain of High affinity nerve growth factor receptor (P04629 33-796 limits assumed): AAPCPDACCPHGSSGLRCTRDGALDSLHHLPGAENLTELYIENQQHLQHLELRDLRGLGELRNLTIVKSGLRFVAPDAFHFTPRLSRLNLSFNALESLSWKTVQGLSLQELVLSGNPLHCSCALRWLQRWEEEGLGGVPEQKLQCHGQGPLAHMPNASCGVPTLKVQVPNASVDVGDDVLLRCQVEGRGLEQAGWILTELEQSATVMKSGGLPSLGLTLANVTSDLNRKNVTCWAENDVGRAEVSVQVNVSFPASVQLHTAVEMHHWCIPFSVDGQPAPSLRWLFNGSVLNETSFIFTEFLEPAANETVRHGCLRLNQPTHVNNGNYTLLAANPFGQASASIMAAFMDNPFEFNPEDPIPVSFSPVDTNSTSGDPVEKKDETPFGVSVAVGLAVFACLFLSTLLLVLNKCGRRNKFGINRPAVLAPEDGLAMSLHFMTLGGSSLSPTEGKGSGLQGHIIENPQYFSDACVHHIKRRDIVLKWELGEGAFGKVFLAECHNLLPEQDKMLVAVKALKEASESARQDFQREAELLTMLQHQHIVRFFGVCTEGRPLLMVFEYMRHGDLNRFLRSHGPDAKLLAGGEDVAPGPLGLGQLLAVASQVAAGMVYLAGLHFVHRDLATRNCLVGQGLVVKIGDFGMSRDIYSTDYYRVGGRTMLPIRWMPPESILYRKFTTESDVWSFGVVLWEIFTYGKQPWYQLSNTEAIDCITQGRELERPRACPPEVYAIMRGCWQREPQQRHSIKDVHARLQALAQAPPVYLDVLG
Chain of Calcium/calmodulin-dependent protein kinase kinase 2 (Homo sapiens) (Q96RR4 2-588 limits assumed): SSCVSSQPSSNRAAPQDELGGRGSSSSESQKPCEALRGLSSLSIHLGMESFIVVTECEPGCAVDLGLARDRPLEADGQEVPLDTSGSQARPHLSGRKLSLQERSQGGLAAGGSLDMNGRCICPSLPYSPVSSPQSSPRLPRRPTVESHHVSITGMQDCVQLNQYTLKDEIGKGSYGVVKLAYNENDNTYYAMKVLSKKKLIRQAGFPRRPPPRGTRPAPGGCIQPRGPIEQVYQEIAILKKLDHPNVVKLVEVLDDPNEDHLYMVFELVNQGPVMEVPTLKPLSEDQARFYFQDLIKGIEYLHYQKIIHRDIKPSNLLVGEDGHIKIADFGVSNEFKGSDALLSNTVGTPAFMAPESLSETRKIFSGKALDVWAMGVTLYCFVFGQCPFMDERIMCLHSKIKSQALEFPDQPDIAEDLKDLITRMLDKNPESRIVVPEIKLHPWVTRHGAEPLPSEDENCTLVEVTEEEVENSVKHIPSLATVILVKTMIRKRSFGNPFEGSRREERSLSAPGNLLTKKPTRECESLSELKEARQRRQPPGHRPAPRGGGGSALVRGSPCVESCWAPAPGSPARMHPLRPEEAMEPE
Chain of Serine/threonine-protein kinase PAK 4 (Homo sapiens) (O96013 whole entry, looked up): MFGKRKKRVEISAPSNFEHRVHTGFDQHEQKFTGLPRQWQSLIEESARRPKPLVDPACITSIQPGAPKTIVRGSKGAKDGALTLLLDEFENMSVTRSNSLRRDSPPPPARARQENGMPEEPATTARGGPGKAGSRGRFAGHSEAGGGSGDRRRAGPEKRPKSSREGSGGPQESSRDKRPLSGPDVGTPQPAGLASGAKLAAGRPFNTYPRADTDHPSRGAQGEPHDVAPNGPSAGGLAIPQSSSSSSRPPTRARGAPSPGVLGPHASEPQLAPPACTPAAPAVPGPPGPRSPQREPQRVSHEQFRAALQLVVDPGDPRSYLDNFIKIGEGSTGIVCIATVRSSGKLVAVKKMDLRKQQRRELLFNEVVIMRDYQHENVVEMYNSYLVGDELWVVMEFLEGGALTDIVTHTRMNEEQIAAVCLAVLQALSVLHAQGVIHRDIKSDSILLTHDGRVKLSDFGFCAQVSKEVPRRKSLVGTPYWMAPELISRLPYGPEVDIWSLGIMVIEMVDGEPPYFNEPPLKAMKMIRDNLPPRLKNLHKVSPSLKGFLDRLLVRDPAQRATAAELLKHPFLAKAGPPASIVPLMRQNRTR

On to `CNS(=O)(=O)c1ccc2c(c1)/C(=C/c1cn(C)c3ccc(OC)cc13)C(=O)N2`, for which the Activity worked out at 104% in [1]; 74% in assay [2]; 76% in assay [3]; 56% in assay [4]; 95% in [5]; 87% in assay [6]. In addition, the Activity came to 104% in assay [7]; 84% in assay [8]; 92% in assay [9]; 100% in [10]; 96% in assay [11]; 4% in assay [12]. The Activity was determined as 99% in assay [13] and 91% in assay [14].

On to `Cn1cc(/C=C2\C(=O)Nc3ccc(S(N)(=O)=O)cc32)c2ccccc21`, for which the Activity is 83% in assay [1]; 59% in [2]; 42% in [3]; 62% in assay [4]; 63% in [5]; 88% in [6]. Moreover, the Activity was 67% in assay [7]; 74% in assay [8]; 102% in [9]; 84% in assay [10]; 90% in assay [11]; 3% in assay [12]. The Activity in [13] came to 104%; in [14], 82%.

Regarding `COc1ccc2c(c1)c(/C=C1\C(=O)Nc3ccc(S(N)(=O)=O)cc31)cn2C`, the Activity came to 94% in assay [1]; 79% in [2]; 50% in assay [3]; 53% in assay [4]; 89% in [5]; 90% in assay [6]. Besides, the Activity came to 82% in assay [7]; 77% in [8]; 93% in [9]; 97% in [10]; 92% in assay [11]; 3% in [12]. Also, the Activity in [13] worked out at 109%; in assay [14], 94%.

For `CN(C)S(=O)(=O)c1ccc2c(c1)/C(=C/c1cn(C)c3ccc(O)cc13)C(=O)N2`, the Activity is 103% in [1]; 43% in assay [2]; 11% in assay [3]; 73% in [4]; 92% in assay [5]; 96% in assay [6]. The Activity in assay [7] worked out at 107%; in assay [8] it was 95%; in [9], 93%; in assay [10], 89%; in [11], 87%; in assay [12], 10%. Besides, the Activity in assay [13] came out at 104%; in assay [14], 100%.

In the case of `COc1ccc2c(c1)c(/C=C1\C(=O)Nc3ccc(S(=O)(=O)N(C)C)cc31)cn2C`, the Activity in assay [1] came out at 98%; in assay [2], 85%; in [3], 71%; in [4], 76%; in assay [5], 88%; in assay [6], 97%. Besides, the Activity was found to be 104% in assay [7]; 96% in [8]; 83% in assay [9]; 95% in [10]; 87% in [11]; 18% in assay [12]. For the same compound, the Activity came to 102% in assay [13] and 96% in assay [14].

As for `COc1ccc2[nH]cc(/C=C3\C(=O)Nc4ccc(S(N)(=O)=O)cc43)c2c1`, the Activity worked out at 101% in assay [1]; 95% in assay [2]; 48% in [3]; 83% in assay [4]; 64% in [5]; 93% in assay [6]. In addition, the Activity in assay [7] was 87%; in [8] it was 93%; in assay [9], 93%; in assay [10], 48%; in [11], 88%; in [12], 6%. For the same compound, the Activity is 101% in assay [13] and 96% in assay [14].
